Where two headings read alike, the source gives them in different places.
Experiments:
[1] = Text: Rats were randomly divided, caged separately, and fed water ad libitum and diet TD 80406 diet (Harlan Teklad, Madison, Wis.). The TD 80406 diet has about 1-2% glycine present in the lactalbumin component and is considered a non-supplemented diet.
Adult (180 day old) male Fisher rats were randomly assigned in treatment groups of 10 rats in each group to diets comprising 5% or 20% glycine in their feed or a non-supplemented diet. Animal and food weight measurements were obtained on the indicated day of the study. The analyst undertaking the weight measurement was blinded relative to the diet of the animal for which the observation was being recorded. The bars represent±1 standard error of the weights of the rats in each group on the indicated observation day.
(§1) The identical experiment was performed with female adult (180 day old) Fisher rats.

abdominal fat [2] = tested on: abdominal fat
Experimental: Five rats from each treatment group were chosen at random and euthanized on day 30 of the study. Measurements of the abdominal fat content of each rat were obtained at necropsy (FIG. 2). The analyst undertaking the measurement was blinded relative to the treatment group of the animal for which the observation was being recorded. Data was analyzed using a One-Way Analysis of Variance and subjected to post-hoc analysis using Dunnett's Multiple Comparison Test.
as §1

[3] = rats on a high glycine diet
Text: Blood samples were withdrawn from the tail vein of the rats under study and sent to Charles River Laboratories for Mutli-Analyte Profile testing. […] Am J Physiol Regul Integr Comp Physiol, 2004. […] Nahrung, 1980. 24(7):663-71; Sugiyama et al., Dietary sulfur-containing amino acids and glycine as determinant factors in plasma cholesterol regulation in growing rats. J Nutr Sci Vitaminol (Tokyo), 1985. […] Pol J Pharmacol, 2003. […] Nutrition Research, 1999. 19(12):1777-1789; Yoshida et al., Effects of addition of arginine, cystine, and glycine to the bovine milk-simulated amino acid mixture on the level of plasma and liver cholesterol in rats. J Nutr Sci Vitaminol (Tokyo), 1988. 34(6):567-76; Olson et al., Effect of amino acid diets upon serum lipids in man. Am J Clin Nutr, 1970. […] Vopr Med Khim, 1984. 30(2):78-80; Yagasaki et al., Effects of dietary methionine, cystine, and glycine on endogenous hypercholesterolemia in hepatoma-bearing rats. J Nutr Sci Vitaminol (Tokyo), 1986. […] J Biol Chem, 1990. 265(10):5910-6.

[4] = adult male ZDF rats, 20% glycine diet vs non-supplemented, day 15 through day 36
Text: (§2) Adult male Zucker diabetic fatty (ZDF) rats were randomly assigned in treatment groups of 3 rats in each group to diets comprising 20% glycine in their feed or a non-supplemented diet. ZDF rats are obese, hyperlipidemic, and insulin resistant. Weight measurements were obtained on the indicated day of the study. The analyst undertaking the weight measurement was blinded relative to the diet of the animal for which the observation was being recorded. The bars represent±1 standard error of the weights of the rats in each group on the indicated observation day. Data was analyzed using a One-Way Analysis of Variance and subjected to post-hoc analysis using Dunnett's Multiple Comparison Test. […] Measurements of the abdominal fat content of each rat were obtained at necropsy (FIG. 7).

abdominal fat [5] = conditions: ZDF rats, 20% glycine diet, at necropsy
Text: as §2

[6] = remark: listed apart in the source
Text: Adult female Sprague-Dawley rats were randomly assigned in treatment groups of 3 rats in each group to diets comprising 5, 10, 15, or 20% glycine in their feed or a non-supplemented diet. Weight measurements were obtained on the indicated day of the study. The analyst undertaking the weight measurement was blinded relative to the diet of the animal for which the observation was being recorded. The bars represent±1 standard error of the weights of the rats in each group on the indicated observation day. […] Data was analyzed using a One-Way Analysis of Variance and subjected to post-hoc analysis using Dunnett's Multiple Comparison Test.

abdominal fat [7] = conditions: adult female Sprague-Dawley rats, glycine from 5% to 20% in diet vs non-supplemented, day 30
Text: Adult female Sprague-Dawley rats were randomly assigned in treatment groups of 3 rats in each group to diets comprising 5, 10, 15, or 20% glycine in their feed or a non-supplemented diet. The rats in each treatment group were euthanized on day 30 of the study. Measurements of the abdominal fat content of each rat were obtained at necropsy. The analyst undertaking the measurement was blinded relative to the treatment group of the animal for which the observation was being recorded. Data was analyzed using a One-Way Analysis of Variance and subjected to post-hoc analysis using Dunnett's Multiple Comparison Test.

BAD = tested on: BAD
Experimental: Adult male Sprague-Dawley rats were randomly assigned in treatment groups of 3 rats in each group to diets comprising 5% or 20% of glycine in their feed or a non-supplemented diet. On day 20 of the study the animals were euthanized and the adipose tissue obtained at necropsy. Total proteins were extracted from the adipose tissue.
Assay of the tissue extracts for the ability to phosphorylate BAD at serine position 136 was performed as follows: One mg of tissue extract was added to BAD agarose (Upstate, Waltham, Mass.). The reaction volume was adjusted to 1 ml using RIPA buffer (with anti-phosphatases and anti-proteases) (Tris-HCl [pH 7.4] 50 mM; NP-40 1%; Na deoxycholate 0.25%; NaCl 150 mM; EDTA 1 mM; PMSF 1 mM; Protease Arrest 100 ul; sodium orthovanadate 1 mM; sodium fluoride 1 mM) and incubated for 0.5 hr at 30° C. The agarose beads were collected by centrifugation (5 sec at 12,000× g). The supernatant was removed and the beads washed 3× with ice cold TBS. The BAD-agarose was resuspended in 40 μl of sample buffer, boiled for 5 min, and centrifuged (5 min at 12,000× g). Seven microliters of sample were electrophoresed on a 15% gel (Tris-Glycine). The protein was transferred by western blotting to a nitrocellulose membrane and blocked with 5% NFM in TTBS at 4° C. with shaking. The membrane was washed with 2% NFM in TTBS. Each lane was blotted with rabbit anti-phospho-BAD 136 antibody at (1:1000 in 2% NFM/TTBS) for 2 hrs at room temperature. The blots were washed three times for 5 min with TTBS. The blots were incubated with goat anti-Rabbit-HRP (1:5000 in 2% NFM/TTBS). The blots were washed 3× for 5 min with TTBS and 2× 5 min with TBS. Visualization of phosphorylated BAD was accomplished with a chemiluminesence substrate (Pierce Super-Signal Substrate™).

[8] = for size and weight after switch to diet without glycine supplementation: 4 weeks glycine diet then 10% to 0%, within one month; for growth (length) / weight gain: glycine added to diet
Text: Animals treated for 4 weeks with diet supplemented with glycine were switched to diet containing no glycine supplementation (FIGS. 18 and 19, 10% to 0%). […] Animals treated for 4 weeks with diet supplemented with glycine were switched to diet containing no glycine supplementation (FIGS. 20 and 21, 10% to 0%).

Remark: listed apart in the source
[9] = tested on: 3T3-L1 cells differentiated into adipocytes
[10] = Glycine added to the diet of laboratory animals (general statement)
[11] = adult female Fisher rats compared with males

In the case of `NCC(=O)O` [glycine], the “effect on weight loss and abdominal fat content” value [1, 11] is reported as “somewhat more pronounced in the females than in the males”, the weight ([1]; adult male Fisher rats, 20% glycine diet vs 5% glycine or non-supplemented diet, day 14-30) is reported as “statistically lighter” and the “weight after return to non-supplemented diet” value ([1]; adult male Fisher rats, 20% glycine group returned to non-supplemented diet on day 30, vs control after day 32) is reported as “no statistical difference”. The “weight at end of Recovery Phase” value ([1]; treated adult female Fisher rats vs control) was “did not rebound to the level of the control animals”, the “reduction in abdominal fat” value (abdominal fat [2]; [11]) was “greater than that observed for the male” and the abdominal fat content (abdominal fat [2]; adult male Fisher rats, 20% glycine diet vs 5% glycine or non-supplemented diet, day 30) was “statistically significant less abdominal fat”. The adiponectin levels [3] was “increase in a manner trending towards significance”, the leptin levels [3] was “Decrease in leptin levels, trending toward significance” and the “serum HDL level” value [3] was “statistically significant (p≤0.05) reduction”. For the same molecule, the serum cholesterol level [3] was “statistically significant (p≤0.05) reduction”, the serum triglyceride level [3] was “statistically significant (p≤0.05) reduction” and the weight [4] was “statistically significant decrease in weight”. The abdominal fat content (abdominal fat [5]) was “statistically significant (p≤0.05) less abdominal fat”, the weight ([6]; adult female Sprague-Dawley rats, 20% glycine diet vs non-supplemented, day 15 through day 36) was “statistically significant decrease in weight” and the weight loss ([6]; female Sprague-Dawley rats, high glycine in the diet) was “rapid significant weight loss”. The abdominal fat content (abdominal fat [7]) was “statistically significant less abdominal fat”, the “ability of WAT protein extracts to phosphorylate BAD at serine position 136” value (BAD; WAT of treated animals, preliminary data) was “did not have the ability to phosphorylate BAD” and the “phosphorylation state of BAD at tyrosine 136” value (BAD; liver tissue extracts) was “no such decrease”. For the same molecule, the “phosphorylation state of BAD at tyrosine 136” value (BAD; muscle extracts) was “no such decrease”, the “loss of BAT tissue” value (BAD; preliminary experiments, glycine-fed rats) was “no significant loss” and the “phosphorylation of BAD at tyrosine 136” value (BAD; white adipose tissue (WAT), adult male rats, 5% or 20% glycine diet, day 20) was “dose dependent decrease”. For the same molecule, the “size and weight after switch to diet without glycine supplementation” value ([8]; immature female rats) was “same size and weight as the control animals”, the “growth (length)” value ([8]; immature female rats) was “dose-dependent reduction” and the weight gain ([8]; immature female rats) was “dose-dependent reduction”. For the same molecule, the “size and weight after switch to diet without glycine supplementation” value ([8]; immature male rats) was “same size and weight as the control animals”, the “growth (length)” value ([8]; immature male rats) was “dose-dependent reduction” and the weight gain ([8]; immature male rats) was “dose-dependent reduction”. For the same molecule, the “gross findings at necropsy” value (15% glycine and 85% TD80406 diet for 6 weeks, rats 24 days old at start) was “No gross lesions or treatment related abnormalities other than weight”, the “blood chemistry and complete blood counts” value (15% glycine diet for 6 weeks vs control diet) was “No differences” and the “histopathological examination of tissues” value (one animal fed high glycine diet, brain, lung, liver, adrenal gland, kidneys, urinary bladder, heart, stomach, intestines) was “no microscopic changes from normal histology”. For the same molecule, the “apoptosis by TUNEL staining” value ([9]; glycine in media equivalent to 2× the normal circulating levels in the blood, preliminary experiments) was “positive TUNEL staining”, the TUNEL staining ([9]; high concentrations of glycine in the medium vs non-treated cells) was “increased staining for TUNEL” and the weight loss ([10]; dietary glycine at high levels (20% by weight)) was “significant weight loss”. The weight ([10]; glycine added to the diet of laboratory animals, rodent strains and dogs) was “dose-dependent loss in weight” and the side-effects ([10]; optimal and super-optimal doses, prolonged administration) was “no deleterious side-effects”.
